The text below walks through data of patent US10272086B2 (CHANG GUNG MEMORIAL HOSPITAL, LINKOU, priority 2013, dated 2019).

The test system of experiment [1] is PSA (prostate specific antigen) protein expression. The experiment in a line: Western blot of AR regulated PSA protein expression in LNCaP cells. Format: cell-based, human. To be noted: 10^−3˜10^−5 M Minoxidil, 24 h. On the procedure: The cells were prepared for electrophoresis on SDS/PAGE gel and then transferred onto nitrocellulose (Minipore, Billerica, USA). AR, PSA and beta-actin proteins were identified using anti-AR (N-20 from Santa Cruz Biotechnology, Santa Cruz, USA), anti-PSA (C-19 from Santa Cruz Biotechnology, Santa Cruz, USA), or […] (MAB1501 from Millipore, Billerica, USA) respectively. Images were shown using alkaline phosphatase substrate color kit (Bio-Rad, Hercules, USA).
(In general: A western blot detects proteins with antibodies after separation by electrophoresis.)

Experiment [2] concerns the target T1, glucocorticoid receptor (GR) (Homo sapiens, UniProt P04150).
T1 construct: host or cells: PC-3
T1 sequence (P04150 1-777): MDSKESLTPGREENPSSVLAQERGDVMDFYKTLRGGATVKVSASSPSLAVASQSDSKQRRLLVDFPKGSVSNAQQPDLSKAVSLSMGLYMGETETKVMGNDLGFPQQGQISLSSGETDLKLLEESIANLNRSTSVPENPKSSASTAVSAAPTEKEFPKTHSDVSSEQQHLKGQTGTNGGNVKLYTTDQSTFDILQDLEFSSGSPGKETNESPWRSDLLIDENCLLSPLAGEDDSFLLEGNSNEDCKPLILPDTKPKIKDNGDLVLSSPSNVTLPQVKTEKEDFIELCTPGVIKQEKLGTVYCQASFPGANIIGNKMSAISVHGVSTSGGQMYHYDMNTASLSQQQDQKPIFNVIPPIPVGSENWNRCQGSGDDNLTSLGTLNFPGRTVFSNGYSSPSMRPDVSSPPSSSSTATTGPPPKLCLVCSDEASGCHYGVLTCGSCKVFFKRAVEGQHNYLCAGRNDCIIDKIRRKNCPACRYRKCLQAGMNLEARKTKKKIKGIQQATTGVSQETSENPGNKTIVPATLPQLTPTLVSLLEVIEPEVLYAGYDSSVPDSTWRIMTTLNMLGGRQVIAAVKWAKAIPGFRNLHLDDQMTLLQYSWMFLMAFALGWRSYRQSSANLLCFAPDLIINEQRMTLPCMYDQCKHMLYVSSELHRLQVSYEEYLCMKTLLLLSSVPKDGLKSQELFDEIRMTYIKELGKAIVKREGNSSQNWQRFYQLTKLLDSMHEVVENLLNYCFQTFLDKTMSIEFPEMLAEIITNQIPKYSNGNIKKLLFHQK
Put plainly: Glucocorticoid receptor transcriptional activity reporter assay in PC-3 cells (control study). It counts as cell-based. On the technique in general: Reporter assays use an easily measured gene product as a stand-in for the process of interest.

Experiment [3] in a line: Topical Minoxidil on forehead acne in a patient, 7-day course. Format: in vivo, human. On the procedure:
An in vivo evaluation of topical Minoxidil on acne was carried out in a patient. […] In addition, there was less new […] formation on the left (treated) forehead compared to the right (untreated) forehead.

A short description of experiment [4]: Topical 5% Minoxidil on an acne on a patient's face, two applications. It counts as in vivo, human.
Experiment [5] in a line: Double-blind clinical trial of topical Minoxidil versus placebo in patients with acne. Format: in vivo, human. Here is the method: A double-blind clinical trial is conducted, in which topical Minoxidil and placebo are administered to patients with acne.

As to `Nc1cc(N2CCCCC2)nc(N)[n+]1[O-]` [Minoxidil, 6-piperidin-1-ylpyrimidine-2,4-diamine 3-oxide], the “AR regulated PSA protein expression” value in experiment [1] is “effective in inhibiting AR regulated PSA protein expression in the presence of DHT, in a dose dependent manner”. The GR transcriptional activity entry in experiment [2] (highest concentration 100 μM) is “did affect GR transcriptional activity”; in experiment [2] (lower concentrations 1-10 μM) it was “did not”. Further, the “New pimple formation, treated versus untreated forehead” value in experiment [3] (5% Minoxidil solution, topical, once a day for 7 days) is on record as “less new pimple formation on the left (treated) forehead”. The “Pimples on treated forehead” value in experiment [3] (5% Minoxidil solution, topical, once a day for 7 days, left forehead treated, right forehead control) is listed as “disappearance of pimples on the left (treated) forehead”. For the same compound, the “Healing time of acne” value in experiment [3] (5% topical Minoxidil, 7-day course) is reported as “faster healing time”. The “Erythema and swelling around the acne” value in experiment [4] (5% Minoxidil, topical, after two applications) was “significant reduction in erythema and swelling around the acne”. In addition, the “Efficacy in treating acne” value in experiment [4] (5% topical Minoxidil, 48-hour period) was “effective in treating acne”. For the same compound, in experiment [5], the “Symptoms and signs of acne in comparison with the placebo group” value is “statistically significant reduction in the symptoms and signs of acne”.
